This note sets out measurements from US8980952B2, “Methods for treating brain swelling with a compound that blocks a non-selective cation channel” (University of Maryland, Baltimore, priority 2002, dated 2015).

“And” between values parts separate entries of the source, which are not always exact repeats. Equal values may be shown once. “Also recorded” adds a separate entry of the source. Read-outs that look alike come from different tables or passages of the source. Some results are limits rather than exact numbers.

Data set [1] relates to native reactive astrocytes (NRAs). In kind it is cell-based, rat.
Data set [2] shares this test system. As to the kind of experiment: Current clamp recording of membrane potential, nystatin-perforated patch. Type of data set: cell-based, rat.
Data set [3] shares this test system. The experiment in a line: Cell blebbing and swelling after ATP depletion (SEM, phase contrast microscopy). In kind it is cell-based, rat.
For data set [4] the test system is unchanged. As to the kind of experiment: Necrotic/apoptotic cell death by propidium iodide and annexin V staining. Type of data set: cell-based, rat.
Another data set deals with MMP-9 & MMP-2. The experiment in a line: Zymography of gelatinase activity of recombinant enzyme and stroke tissue. In kind it is biochemical. Particulars: glibenclamide 10 μM; MMP inhibitor II 300 nM. The protocol: Activation of MMP-9 & MMP-2 in stroke tissue was compared to controls. […] Calbiochem). Next, the supernatants underwent a gelatinase purification process with gelatin-Sepharose 4B (Pharmacia), and Zymography was performed on the purified supernatants in sodium dodecyl sulfate gels containing gelatin (Rosenberg, 1994). Dried gels were scanned with a transparency scanner, and images were analyzed by densitometry. The relative lysis of an individual sample was expressed as the integrated density value of its band and divided by the protein content of the sample.

In another data set the test system is gliotic capsule. The conditions noted are these: for GFAP response / gliotic capsule: glibenclamide 1 μM or diazoxide 10 μM at 0.5 μl/hr × 7 days.
A short description of data set [5]: Thromboembolic stroke with tPA reperfusion at 6 hr, hemorrhagic conversion. Type of data set: in vivo, rat. The conditions noted are these: 24 hr after stroke, co-treated with tPA 10 mg/kg i.v. at 6 hr; loading dose 1.5 μg/kg i.v. plus s.c. pump.
The nature of data set [6]: Thromboembolic (TE) MCA stroke model. Type of data set: in vivo, rat. The conditions noted are these: for Infarct volume, percent of hemisphere volume: 75 ng/hr.
A short description of data set [7]: Rodent model of stroke, glibenclamide vs. saline by subcutaneous mini-pump. Type of data set: in vivo, rat.
Another data set relates to SUR1. The experiment in a line: SUR1 knockdown by antisense oligodeoxynucleotide infusion at gelfoam implantation site. In kind it is in vivo, rat. Particulars: ODN infused 14 days; vs. scrambled sequence ODN.
Where [8] appears, read: glibenclamide 1 μM with Na azide 1 mM.

For `Nc1ccncc1` [4-AP, 4-aminopyridine], in [1], the “Outward current remaining in presence of charybdotoxin” value is on record as “further blocked”.

On to `[N-]=[N+]=[N-]` [NaN3, Sodium azide], for which the Em after depolarization in data set [2] is −4.3±0.9 mV. For the same compound, the “Time to apparent blebbing after exposure” value in data set [3] was 10 to 15 min and 7 to 10 min.

Regarding `CC[N+](CC)(CC)CC.[Cl-]` [TEA, tetraethylammonium chloride], the “Block of large outward currents” value in data set [1] was “partially blocked”.

Turning to `CC1=NS(=O)(=O)c2cc(Cl)ccc2N1` [diazoxide], in data set [4], the “Necrotic death by channel opener” value is “necrotic death can also be induced by diazoxide”. Moreover, the “Blebbing with channel opener alone” value in [3] (no ATP depletion) was “blebbing occurs even without ATP depletion; also recorded: developed progressive blebbing consistent with cytotoxic edema”.

In the case of `COc1ccc(Cl)cc1C(=O)NCCc1ccc(S(=O)(=O)NC(=O)NC2CCCCC2)cc1` [glibenclamide], the Gelatinase activity result in the data set with MMP-9 & MMP-2 is “did not directly inhibit gelatinase activity”. The “annexin V labeling (apoptotic death)” value in data set [4] (setting [8]) is “not significantly different”. In data set [4] (setting [8]), the “number of PI-positive cells (necrotic death)” value was “dramatically decreased; also recorded: largely prevented”. Further, the results for the “GFAP response / gliotic capsule” value in the data set on gliotic capsule and in the data set with gliotic capsule (listed as Glibenclamide) were “well defined gliotic capsule” and “reduced the overall injury response”, respectively. In the data set on gliotic capsule (infusion into site of gelatin sponge), the “Inflammatory response / PMN infiltration” value is “minimized the inflammatory response”. Further, the “Animals with hemorrhagic conversion” value in [5] is 1 of 6 and ⅕. Besides, the results for the “Infarct volume, percent of hemisphere volume” value in [6] (2 days after MCAO) and in data set [6] (7 days after MCAO) were 16.7±2.2% and 15.2±1.2%, respectively. The “Stroke volume, percent of hemisphere volume” value in [6] (48 hr after stroke, 10 male rats per group) was 15.5±2.3%. Besides, the “Stroke volume vs. saline at 48 hr” value is on record as “significant reduction in stroke volume” in data set [6] (begun 2 hr after stroke, loading dose 3.3 μg/kg i.p.); “not statistically significant” in data set [6] (begun 4 hours after MCAO, loading dose 3.3 μg/kg i.p.); “statistically significant reductions in stroke volume” in data set [6] (begun 4 hours after MCAO, loading dose 33.0 μg/kg i.p. with glucose 1 gm/kg); “statistically significant reductions in stroke volume” in data set [6] (begun 6 hours after MCAO, loading dose 33.0 μg/kg i.p. with glucose 1 gm/kg); “significant reduction in stroke volume” in data set [6] (infusion 75 ng/hr begun immediately after stroke, no loading dose). Besides, the “3-day mortality after stroke” value in data set [7] (rat, in vivo, sc) turned out to be 28%. For the same compound, the “Excess water in stroke hemisphere” value in data set [7] (vs. saline-treated rats, n=5 per group) is “only half as much excess water”. Further, the “Reduction of edema with added glucose” value (8 hr after MCAO, supplemental glucose 1 gm/kg i.p. at 4 hr) is “just as effective in reducing edema”. In addition, where the note is “8 hr after stroke, saline 3.4%”, the “Rise of water in involved hemisphere” value is on record as 2.0%. The “Rise of water in TTC(+) tissue” value (8 hr after stroke, saline 5.4%) is given as 2.5%. Further, the “Water in TTC(−) tissue of involved hemisphere” value (8 hr after stroke, saline 78.7±1.0%) is listed as 78.6±0.4%. The “Water content of involved hemisphere” value (8 hr after stroke, saline 81.3±0.5%, control hemisphere 77.9±0.2%) came to 79.9±0.3%. For the same compound, the “Water in TTC(+) tissue of involved hemisphere” value (8 hr after stroke, saline 83.4±1.1%) is recorded as 80.5±0.3%. The compound also registered a Serum glucose (rat, in vivo) of 93 ± 3 mg/dL. The “Mortality during 7 days after MCA stroke” value (rat, in vivo, sc) turned out to be 24%. In addition, the “Blebbing on NaN3 in presence of glibenclamide” value in data set [3] (pretreated cells, observed 30 min) was “does not cause blebbing; also recorded: remained phase bright with no pathological deterioration”.

In the case of `OC[C@@H](O)[C@@H](O)[C@H](O)[C@H](O)CO` [mannitol], in [2] (50 mM mannitol), the “Effect on NaN3-induced depolarization” value is listed as “neither the time course nor the magnitude of the depolarization is affected”. Also, the “Delay of bleb formation after exposure to NaN3” value in data set [3] (50 mM mannitol, 350 mOsm) was over 30 min.

In the case of `C[C@@H]1O[C@@H](O[C@H]2C[C@@H](O)[C@]3(CO)[C@H]4[C@H](O)C[C@]5(C)[C@@H](C6=CC(=O)OC6)CC[C@]5(O)[C@@H]4CC[C@]3(O)C2)[C@H](O)[C@H](O)[C@H]1O` [ouabain], the Depolarization entry in [2] (1 mM ouabain) is “small reversible depolarization”.

With “SUR1KD: SUR1 antisense oligodeoxynucleotide 5′-GGCCGAGTGGTTCTCGGT-3′ (SEQ ID NO: 9) (DNA, backbone not given here)”, the “Depolarization on application of Na azide” value in [2] was 8.7±1.7 mV. Moreover, in [3] (cells from SUR1KD), the “Membrane blebbing after Na azide” value was “not observed”. In addition, the “SUR1 expression in gliotic capsule (immunoblot)” value in the data set with SUR1 is on record as “significant reduction in SUR1 expression”.

For the compound “charybdotoxin: toxin partially blocking large conductance Ca2+-activated K+ channel currents”, the “Block of large outward currents” value in [1] was “partially blocked”.

As to “iberiotoxin: toxin partially blocking large conductance Ca2+-activated K+ channel currents (QFTDVDCSVSKECWSVCKDLFGVDRGKCMGKKCRCYQ)”, in data set [1], the “Block of large outward currents” value was “partially blocked”.
